pIC50: −log10 of the molar value. Where “and” joins values, the source holds several entries; their conditions need not be identical. Identical values can stand only once.
Key:
[1] = test system: P. falciparum stage III–IV gametocytes; assay: P. falciparum gametocyte viability assay (MitoTracker, flow cytometry), stage III-IV; assay type: cell-based, Plasmodium falciparum; conditions: 48 h; for Gametocyte stage III-IV viability, percentage of control: replicate values, source data Fig. 2C, listed as BC5B
Outline: (§1)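 Magnetically enriched gametocytes, stage III-IV (day 7) or stage V (day 10), were exposed to serially diluted compounds in medium with 50 mM N-acetyl-D-glucosamine for 48 hours at 37 °C, microaerophilic. Staining with 500 nM MitoTracker Deep Red FM and Hoechst, then flow cytometry, gave percentage live versus dead gametocytes.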

[2] = test system: P. falciparum stage V gametocytes; assay: P. falciparum gametocyte viability assay (MitoTracker, flow cytometry), stage V; assay type: cell-based, Plasmodium falciparum; conditions: 48 h
Outline: as §1

[3] = test system: Toxoplasma gondii tachyzoites (RH strain); assay: Toxoplasma growth inhibition assay (tdTomato fluorescence, in HFF cells); assay type: cell-based; conditions: 72 h
[4] = test system: human foreskin fibroblasts (HFF); assay: Human foreskin fibroblast growth inhibition assay (SYBR Safe); assay type: cell-based; conditions: 72 h
Outline: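 About 5000 HFF cells per well incubated with compound serial dilutions for 72 hours at 37 °C, until confluent. Growth quantified by DNA content: freeze-thaw, then SYBR Safe (1/10,000 final) in lysis buffer, fluorescence 490/520 nm. 10 µg/mL cycloheximide defines background (no growth).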

P. berghei liver stages = assay: Plasmodium berghei liver stage growth inhibition assay (luminescence, in Huh7 cells); conditions: for P. berghei liver stage growth, dose-response data points (Figure 3A): replicate data points; for P. berghei liver stage growth, dose-response data points (Figure 3A) / Figure 3E dose-response value (replicates): listed as BC5B
Protocol: Growth inhibition or cell viability were assessed by incubation with a serial dilution of test compounds, solvent controls (DMSO, ethanol, ethyl acetate), or culture media alone in 96-well plates, with detection of fluorescence, luminescence, or absorbance in microplate readers after 24–96 h unless otherwise specified.
Huh7 cells were seeded at a density of 10,000 cells per well of a 96-well plate, or 20,000 cells per collagen-coated coverslip. After 24 h, test compounds were added the wells were inoculated with P. berghei liver stage sporozoites dissected from infected A. stephensi salivary glands with 5000–10,000 sporozoites per well or 10,000–20,000 sporozoites per coverslip. Uninfected wells served as a control for background luminescence. Luminescence signal was measured 48 h post-invasion by addition of 1:1 ONE-Glo^TM substrate (Promega) with a luminescence microplate reader. Coverslips were fixed, stained, and imaged, with all parasites on each coverslip imaged and delineated as described (Petersen et al, [2017]) using Fiji ImageJ (Schindelin et al, [2012]). Data are presented as a percentage of the size or parasite number of the solvent control to normalize for differences between experiments.
Growth inhibition data were normalised by subtracting background fluorescence, luminescence, absorbance, or percentage of cells from a no-growth or no-viability control (high drug concentration, no-parasite control, or time = 0 measurement as specified), and expressed as a percentage of the growth or cell percentage in the negative control (culture media alone or solvent control) at the indicated timepoint (or to the highest measurement reached during the assay for Fig. EV3).
Plasmodium berghei ANKA Bergreen (22) or GFP-Luc (RMgm-29) (23), respectively
expressing green fluorescent protein (GFP) or a GFP-Luciferase fusion protein, were
maintained under routine conditions in SWR/J Mus musculus mice and Anopheles stephensi
Growth inhibition of P. berghei liver-stages was investigated after infection of human
hepatoma cells (Huh7) and subsequent growth for 48 hours at 37° C, 5% CO2 and 80%
humidity. The day prior to infection, 10,000 Huh7 cells were seeded in dark-sided 96-well
microplates (Greiner Bio One). On the day of infection, compounds or solvent controls
(DMSO) were serially diluted in culture media and 5,000 – 10,000 Bergreen or GFP-Luc
sporozoites were added per well following dissection from infected A. stephensi salivary
glands. Uninfected wells served as control for background luminescence. To promote invasion,
the plates were centrifuged at 1,550 g for 5 minutes. After 60 minutes, the media was
completely replaced with fresh, prewarmed media with the matching drug concentrations.
Media was partially replaced with new drug dilutions over the following two days. 48 hours
post-infection, luminescence signal was measured by addition of 1:1 ONE-GloTM substrate
(Promega) to the wells, followed by detection at 300 – 700 nm using a Synergy HTX plate

COc1cc(NC(C)CCCNC(=O)CCC(=O)O[C@H]2CC[C@H]3[C@@H]4CC=C5C[C@@H](O)CC[C@]5(C)[C@H]4CC[C@]23C)c2ncccc2c1 (stereo partly shown) [C-17-PQ]
Gametocyte stage III-IV viability, percentage of control ([1]; 0.390625000 uM, 0.390625 µM): 106.6% and 106.4% and 106.3% and 105.9% and 97.84% and 98.56% and 99.18% and 96.09% and 94.81% and 99.34% and 96.51% | Gametocyte stage III-IV viability, percentage of control ([1]; 0.781250000 uM, 0.78125 µM): 105.6% and 103.6% (2×) and 99.85% and 95.38% and 98.97% and 96.71% and 98.76% and 95.09% and 98.49% and 100.2% | Gametocyte stage III-IV viability, percentage of control ([1]; 1.562500000 uM, 1.5625 µM): 98.2% and 92.41% and 99.85% and 96.05% and 86.9% and 96.5% and 96.91% and 95.26% and 86.31% and 88.01% and 87.16% | Gametocyte stage III-IV viability, percentage of control ([1]; 3.125000000 uM, 3.125 µM): 76.23% and 73.04% and 83.77% and 78.85% and 72.15% and 82.91% and 79.82% and 79.41% and 67.61% and 67.33% and 65.91% | Gametocyte stage III-IV viability, percentage of control ([1]; 6.250000000 uM, 6.25 µM): 47.47% and 48.87% and 53.06% and 57.19% and 51.38% and 37.08% and 52.02% and 49.97% and 47.91% and 50.9% (2×) and 52.03% | Gametocyte stage III-IV viability, percentage of control ([1]; 12.500000000 uM, 12.5 µM): 32.49% and 39.99% and 32.61% and 29.26% and 32.88% and 27.73% and 25.88% and 43.81% | Gametocyte stage III-IV viability, percentage of control ([1]; 25.000000000 uM): 17.71% and 16.11% and 15.11% and 33.28% and 21.89% and 14.3% and 17.64% and 12.08% and 12.7% and 13.79% and 6.704% and 7.271% | Gametocyte stage III-IV viability, percentage of control ([1]; 50.000000000 uM): 5.639% and 8.492% and 6.658% and 16.42% and 3.442% and -2.383% and -3.188% and -11.09% and -14.21% and 3.059% and -3.824% and -12.14% | Gametocyte stage III-IV viability, percentage of control ([1]; 100.000000000 uM): 3.289% and 0.9211% and -0.4605% and 9.774% and -7.24% and -17.63% and -19.17% and -25.26% and -26.31% and -15.93% and -26.87% and -31.48% | Fold reduction in IC50 compared to primaquine alone [1]: 9 fold | viability at 0.390625 µM ([1]; Plasmodium falciparum, read-out: Gametocyte stage III-IV viability, percentage of control, 0.390625000 uM, 48 h, replicate values, source data Fig. 2C): 105% | viability at 0.78125 µM ([1]; Plasmodium falciparum, read-out: Gametocyte stage III-IV viability, percentage of control, 0.781250000 uM, 48 h, replicate values, source data Fig. 2C): 101% | viability at 1.5625 µM ([1]; Plasmodium falciparum, read-out: Gametocyte stage III-IV viability, percentage of control, 1.562500000 uM, 48 h, replicate values, source data Fig. 2C): 95% | viability at 3.125 µM ([1]; Plasmodium falciparum, read-out: Gametocyte stage III-IV viability, percentage of control, 3.125000000 uM, 48 h, replicate values, source data Fig. 2C): 72.4% | viability at 12.5 µM ([1]; Plasmodium falciparum, read-out: Gametocyte stage III-IV viability, percentage of control, 12.500000000 uM, 48 h, replicate values, source data Fig. 2C): 31.7% | pIC50 ([1]; Plasmodium falciparum, read-out: IC50, P. falciparum gametocyte stage III-IV inhibition, 48 h): 5.15 | Fold reduction in IC50 compared to primaquine alone [2]: > 2 fold | viability at 3.125 µM ([2]; Plasmodium falciparum, read-out: Gametocyte stage V viability, percentage of control, 3.125000000 uM, 48 h, replicate values, source data Fig. 2D): 74.7% | pIC50 ([2]; Plasmodium falciparum, read-out: IC50, P. falciparum gametocyte stage V inhibition): 5.17 | Fold difference in IC50 to primaquine ([3]; listed as steroid-primaquine conjugate): ~ 3.5 fold and 3 fold | pIC50 ([3]; Toxoplasma gondii, HFF, read-out: IC50, T. gondii tachyzoite growth inhibition): 5.55 | Maximal inhibition of fibroblast growth at the range of concentrations tested ([4]; HFF): ≤ 30% | pIC50 ([4]; Homo sapiens, Fibroblast, read-out: IC50, human fibroblast growth inhibition): < 3.54 | P. berghei liver stage growth, dose-response data points (Figure 3A) (P. berghei liver stages; 0.015241580 uM): 99.66 and 97.59 and 102.8 and 91.81 and 95.85 and 112.3 and 109.1 and 88.24 and 102.7 | P. berghei liver stage growth, dose-response data points (Figure 3A) (P. berghei liver stages; 0.045724740 uM): 109 and 90.36 and 103.8 and 84.25 and 83.27 and 86.47 and 94.66 and 88.64 and 73.11 | P. berghei liver stage growth, dose-response data points (Figure 3A) (P. berghei liver stages; 0.137174210 uM): 94.49 and 73.84 and 68.67 and 79.23 and 76.1 and 53.42 and 81.73 and 93.15 and 81.23 | Figure 3E dose-response value (replicates) (P. berghei liver stages; 0.145312500 uM): 100.6 and 88.31 and 76.37 and 94.25 | Figure 3E dose-response value (replicates) (P. berghei liver stages; 0.290625000 uM): 94.35 and 94.79 and 85.61 and 89.45 and 87.37 and 88.47 and 84.93 and 94.4 and 94.85 and 93.84 and 89.47 and 91.21 | P. berghei liver stage growth, dose-response data points (Figure 3A) (P. berghei liver stages; 0.411522630 uM): 13.94 and 18.07 and 25.3 and 9.363 and 14.77 and 12.23 and 25.32 and 28.82 and 21.11 | Figure 3E dose-response value (replicates) (P. berghei liver stages; 0.581250000 uM): 102.2 and 80.25 and 95.76 and 90.1 and 83.44 and 75.35 and 88.55 and 97.11 and 92.72 and 86.07 and 93.7 and 93.03 | Figure 3E dose-response value (replicates) (P. berghei liver stages; 1.162500000 uM): 80.19 and 74.87 and 75.85 and 88.24 and 81.26 and 89.14 and 75.39 and 78.14 and 86.59 and 91.1 and 86.79 and 86.51 | P. berghei liver stage growth, dose-response data points (Figure 3A) (P. berghei liver stages; 1.234567900 uM): 1.549 (2×) and -1.549 and 0.4997 and 0.5648 and 2.455 and 1.57 and 4.175 and 3.674 | Figure 3E dose-response value (replicates) (P. berghei liver stages; 2.325000000 uM): 53.31 and 45.1 and 53.66 and 84.74 and 82.81 and 85.04 and 49.27 and 57.96 and 49.51 and 76.01 and 76.49 and 71.94 | P. berghei liver stage growth, dose-response data points (Figure 3A) (P. berghei liver stages; 3.703703700 uM): -1.549 and -0.5164 and -3.614 and 0.04345 and -0.02173 and 0.1086 and 0.3674 and 0.5678 and 1.47 | Figure 3E dose-response value (replicates) (P. berghei liver stages; 4.650000000 uM): 7.681 and 6.67 and 6.188 and 47.84 and 67.52 and 65.25 and 8.114 and 8.015 and 9.768 and 28.34 and 27.7 and 22 | Figure 3E dose-response value (replicates) (P. berghei liver stages; 9.300000000 uM): 1.871 and 0.7826 and 2.182 and 4.713 and 13.07 and 10.27 and 2.653 and 3.064 and 2.474 and 6.135 and 6.853 and 6.628 | P. berghei liver stage growth, dose-response data points (Figure 3A) (P. berghei liver stages; 11.111111100 uM): -2.582 (2×) and -3.614 and -0.0869 and 0.1086 and 0.4997 and 0.5678 and 0.4676 and 0.7682 | Figure 3E dose-response value (replicates) (P. berghei liver stages; 18.600000000 uM): 1.555 and 0.8085 and 1.399 and 1.289 and 0.3453 and 0.9092 and 0.9717 and 1.016 and 1.705 and 1.904 and 2.379 and 2.285 | P. berghei liver stage growth, dose-response data points (Figure 3A) (P. berghei liver stages; 33.333333300 uM): -2.582 and -1.549 and -0.5164 and -0.02173 and 0.3041 (2×) and 0.3674 (2×) and 0.9686 | Figure 3E dose-response value (replicates) (P. berghei liver stages; 37.200000000 uM): 2.576 and 1.923 and 1.736 and -0.9169 and -0.5313 and 0.3203 and 0.31 and 1.213 and 0.6856 and 1.324 and 1.043 and 1.236 | P. berghei liver stage growth, dose-response data points (Figure 3A) (P. berghei liver stages; 100.000000000 uM): 0.5164 and -1.549 and 1.549 and 0.04345 and 0.4997 and 0.1086 and 0.5678 (2×) and 0.668 | Fold reduction in IC50 compared to primaquine alone (P. berghei liver stages; 48 h): ~ 15 fold | pIC50 (P. berghei liver stages; Plasmodium berghei, Huh-7, 48 h, read-out: IC50, P. berghei liver stage growth inhibition): 6.70

Reference: paper PMC11251039, “Harnessing cholesterol uptake of malaria parasites for therapeutic applications” (EMBO Molecular Medicine, 2024)
